Data taken from patent US20140066394A1, “Substituted 6-(Benzylamino) Purine Riboside Derivatives, Use Thereof and Compositions Containing These Derivatives” (Biopatterns, S.R.O, priority 2009, published 2014).

Tests used:
[1] = tested on: breast carcinoma cell line MCF-7; assay: In vitro cytotoxicity, Calcein AM assay, MCF7; format: cell-based, human; details: Homo sapiens, MCF7, 72 hours
Description: (§1) Low cytotoxicity of the compounds is the major property determining the cosmetic use. One of the parameters used, as the basis for cytotoxicity assays, is the metabolic activity of viable cells. For example, a microtiter assay, which uses the Calcein AM, is now widely used to quantitate cell proliferation and cytotoxicity. For instance, this assay is used in drug screening programs and in chemosensitivity testing. Because only metabolically active cells cleave Calcein AM, these assays detect viable cells exclusively. The quantity of […] Calcein AM corresponds to the number of vital cells in the culture.
(§2) Human T-lymphoblastic leukemia cell line CEM; promyelocytic HL-60 and monocytic U937 leukemias; breast carcinoma cell lines MCF-7, BT549, MDA-MB-231; glioblastoma U87MG cells; cervical carcinoma cells HELA; sarcoma cells U2OS and Saos2; hepatocellular carcinoma HepG2; mouse fibroblasts NIH3T3; mouse immortalized bone marrow macrophages B2.4 and B10A.4; P388D1 and L1210 leukemia; B16 and B16F10 melanomas; human osteosarcoma HOS; human myeloid leukemia K-562; human skin melanoma G-361 were used for routine screening of compounds. The cells were maintained in Nunc/Corning 80 cm^2 plastic tissue culture flasks and cultured in cell culture medium (DMEM with 5 g/l glucose, 2 mM glutamine, 100 U/mL penicillin, 100 μg/mL streptomycin, 10% fetal calf serum and sodium bicarbonate).
(§3) The cell suspensions that were prepared and diluted according to the particular cell type and the expected target cell density (2.500-30.000 cells per well based on cell growth characteristics) were added by pipette ([…]) into 96/well microtiter plates. Inoculates were allowed a pre-incubation period of 24 hours at 37° C. and 5% CO2 for stabilisation. Four-fold dilutions of the intended test concentration were added at time zero in 20 μl aliquots to the microtiter plate wells. Usually, the compound tested was evaluated at six 4-fold dilutions. In routine testing, the highest well concentration was 100 μM, but it can be the matter of change dependent on the agent. All drug concentrations were examined in duplicates. Incubations of cells with the tested compounds lasted for 72 hours at 37° C., in 5% CO2 atmosphere and 100% humidity. At the end of the incubation period, the cells were assayed by using Calcein AM. Ten microliters of the stock solution were pipetted into each well and incubated for 1 hour. Fluorescence (FD) was measured with the Labsystem FIA Reader Fluoroscan Ascent (UK). The tumour cell survival (GI50) was calculated using the following equitation: TCS=(FDdrug exposed well/mean FDeontrol wells)×100%. The GI50 value, the drug concentration lethal to 50% of the tumour cells, was calculated from the obtained dose response curves.
(§4) Zero cytotoxicity of the novel compounds is the basic prerequisite for agricultural and tumor-unrelated applications. The cytoxicity of the novel compounds was tested on a panel of cell lines of different histogenetic and species origin (Table 9). We show herein that equal activities were found in all tumour cell lines tested, however, the non-malignant cells, e.g. NIH3T3 fibroblasts and normal human lymphocytes, were resistant to 2,6-disubstituted purine ribosides induced cytotoxicity. The compounds listed in Tab. 9 can be divided into 2 groups. The first group contains “classical cytokinins” represented by 6-substituted purine ribosides (which are known in the prior art). The second group contains the novel 2,6-disubstituted derivatives of these compounds. […] GI50 for NIH3T3 fibroblasts and normal human lymphocytes was always higher than 100 μM. The novel derivatives show no toxicity to normal and tumour cells in concentrations about 100 μM and thus are more suitable for agricultural applications than “classical cytokinins” (6-substituted purine riboside derivatives).

[2] = tested on: promyelocytic HL-60 leukemia; assay: In vitro cytotoxicity, Calcein AM assay, HL60; format: cell-based, human; details: Homo sapiens, HL-60, 72 hours
Description: as §1, §2, §3, §4

[3] = tested on: human myeloid leukemia K-562; assay: In vitro cytotoxicity, Calcein AM assay, K-562; format: cell-based; details: Homo sapiens, K562, 72 hours
Description: as §1, §2, §3, §4

neutrophils = assay: ANCA-induced neutrophil superoxide generation, lucigenin based assay; format: cell-based, human; details: single concentration 10 μM, 10 minute period (FIG. 11)
Description: FIG. 11 Inhibition of ANCA induced neutrophil ROS production by compound 10. Neutrophils were cultured at 2×10^6 cells/ml in RPMI1640 medium containing human serum antibiotics and 20 ng/ml TNFα for 10 minutes prior to addition of ANCA and a range of concentrations of compound 10. Generation of superoxide was determined over a 10 minute period using a lucigenin based assay. The area under the curve was calculated to give superoxide generation over the whole assay period.
ANCA are predominantly IgG autoantibodies directed against constituents of primary granules of neutrophils (PR3 and MPO). ANCA associated vasculitis is the most common primary systemic small-vessel vasculitis in adults. […] Neutrophils were cultured for 10 hours in RPMI1640 medium containing 2% human AB serum, 2 mM L-glutamine and antibiotics (100 U/ml penicillin, […] streptomycin) and their apoptosis determined by staining with Giemsa stain and observing an apoptotic morphology by light microscopy. […] The ability of compound 10 to inhibit ANCA-induced neutrophil inflammatory functions was also determined Neutrophils were cultured in RPMI1640 medium containing 2% human AB serum, 2 mM L-glutamine and antibiotics (100 U/ml penicillin, […] streptomycin). […] ANCA stimulated degranulation of neutrophils was assessed by release of myeloperoxidase in to the medium over a 30 minute period, with MPO measured by ELISA. […]

In the case of COc1cccc(CNc2nc(Cl)nc3c2ncn3C2OC(CO)C(O)C2O)c1O (stereo not shown) [Compound 10, 2-Chloro-6-(2-hydroxy-3-methoxybenzylamino)purine riboside], the GI50 [1] is reported as over 100 µM, the GI50 [2] is reported as over 100 µM and the GI50 [3] is reported as over 100 µM. The ANCA-induced superoxide generation (neutrophils) was “completely inhibited ANCA-induced superoxide generation”.
